Data on three molecules can be found in patent US20080021015A1, “Use as medicine of a compound restoring active principles in vivo” (DOSPHARMA, priority 2000, published 2008).

Where a name gives a salt, the structure may show the parent alone. Where only a bound is given, the exact number is not on record here.

For data set [1] the following is noted: rat, in vivo, po, 50 mg/kg.
The subject of data set [2] is rats treated with streptozotocin. Kind of data set: Antidiabetic activity in rats made diabetic with streptozotocin. The data set is classed as in vivo, rat. The note with it: streptozotocin (50 mg/kg, IP) rats; for hyperglycaemia after treatment: after administration of 30 mg/kg; for hyperglycaemia before treatment: starting value, 30 mg/kg group. As for the experimental part: (§1) The antidiabetic activity was studied, from the pharmacological point of view, on two models of rats made diabetic.
The first model consisted in treating the rats with streptozotocin (50 mg/kg, IP), this being a compound which induces an increase in glycaemia, which increases from 5.5 mM to 12-14 mM in 21 days.

A further data set deals with primary hepatocytes. Kind of data set: In vitro toxicity assay on primary hepatocytes.
Data set [3] relates to rats given fructose at 10% in the drinking water. The note with it: fructose 10% in drinking water, equivalent dose of metformin base. Here is the method: as §1
The second study is carried out with the administration of fructose at 10% in the drinking water of the rats.

Experimental for primary hepatocytes: A method for culturing primary hepatocytes over a period of 96 hours is used (see Biochemical Pharmacology, vol. 50, 1995, pp. 775-780). The hepatocytes are isolated in situ by collagen profusion. They are then placed in a Williams medium supplemented with foetal calf serum, with cortisol and with glutamine, in a proportion of 1 million cells per well. Increasing and toxic concentrations of A and C, and of A′ ? […] C′ are then added to each well. Samples are taken up after 6 h, 12 h, 24 h, 48 h and 96 h and the viability of the cells is determined with a methylene blue test, by albumin expression, by hepatocyte apoptosis and by measuring cytochrome P450 activity.

On to `CN(C)C(=N)N=C(N)N` [metformin hydrochloride], for which, in data set [1], the concentration peak amounted to 3900 ng/mL and the “time of concentration peak” value was ≤ 90 min.
For the molecule `CN(C)C(=N)NC(=N)N` [metformin, N,N-dimethylimidodicarbonimidic diamide], in data set [2], the hyperglycaemia after treatment was determined as 9.85 mM and the hyperglycaemia before treatment is given as 12.11 mM. Moreover, the toxic dose in the data set on primary hepatocytes is reported as 10^−2 M.
In data set [2], “arginine hemisuccinimide-metformin hemisuccinate” had a hyperglycaemia after treatment of 7.56 mM and a hyperglycaemia before treatment of 12.66 mM. In addition, in data set [3], the “antidiabetic activity compared with metformin alone” value was “significantly more active than the metformin alone”. In the data set with hamster cheek pouch, the “effects on the microcirculation” value was “reproduces at least the effects of the two active principles on the microcirculation”.
